Measured values: US20040229791A1, “Compositions and methods of modulating TGF-beta activity by fatty acids” (priority 2002, published 2004)

Target: T1, TGF-β2-α2M* complex (Homo sapiens, UniProt P01023)
T1 construct: was purified from pooled citrate-treate human plasma; from tissue; host or cells: pooled citrate-treated human plasma
T1 sequence (P01023 24-1474): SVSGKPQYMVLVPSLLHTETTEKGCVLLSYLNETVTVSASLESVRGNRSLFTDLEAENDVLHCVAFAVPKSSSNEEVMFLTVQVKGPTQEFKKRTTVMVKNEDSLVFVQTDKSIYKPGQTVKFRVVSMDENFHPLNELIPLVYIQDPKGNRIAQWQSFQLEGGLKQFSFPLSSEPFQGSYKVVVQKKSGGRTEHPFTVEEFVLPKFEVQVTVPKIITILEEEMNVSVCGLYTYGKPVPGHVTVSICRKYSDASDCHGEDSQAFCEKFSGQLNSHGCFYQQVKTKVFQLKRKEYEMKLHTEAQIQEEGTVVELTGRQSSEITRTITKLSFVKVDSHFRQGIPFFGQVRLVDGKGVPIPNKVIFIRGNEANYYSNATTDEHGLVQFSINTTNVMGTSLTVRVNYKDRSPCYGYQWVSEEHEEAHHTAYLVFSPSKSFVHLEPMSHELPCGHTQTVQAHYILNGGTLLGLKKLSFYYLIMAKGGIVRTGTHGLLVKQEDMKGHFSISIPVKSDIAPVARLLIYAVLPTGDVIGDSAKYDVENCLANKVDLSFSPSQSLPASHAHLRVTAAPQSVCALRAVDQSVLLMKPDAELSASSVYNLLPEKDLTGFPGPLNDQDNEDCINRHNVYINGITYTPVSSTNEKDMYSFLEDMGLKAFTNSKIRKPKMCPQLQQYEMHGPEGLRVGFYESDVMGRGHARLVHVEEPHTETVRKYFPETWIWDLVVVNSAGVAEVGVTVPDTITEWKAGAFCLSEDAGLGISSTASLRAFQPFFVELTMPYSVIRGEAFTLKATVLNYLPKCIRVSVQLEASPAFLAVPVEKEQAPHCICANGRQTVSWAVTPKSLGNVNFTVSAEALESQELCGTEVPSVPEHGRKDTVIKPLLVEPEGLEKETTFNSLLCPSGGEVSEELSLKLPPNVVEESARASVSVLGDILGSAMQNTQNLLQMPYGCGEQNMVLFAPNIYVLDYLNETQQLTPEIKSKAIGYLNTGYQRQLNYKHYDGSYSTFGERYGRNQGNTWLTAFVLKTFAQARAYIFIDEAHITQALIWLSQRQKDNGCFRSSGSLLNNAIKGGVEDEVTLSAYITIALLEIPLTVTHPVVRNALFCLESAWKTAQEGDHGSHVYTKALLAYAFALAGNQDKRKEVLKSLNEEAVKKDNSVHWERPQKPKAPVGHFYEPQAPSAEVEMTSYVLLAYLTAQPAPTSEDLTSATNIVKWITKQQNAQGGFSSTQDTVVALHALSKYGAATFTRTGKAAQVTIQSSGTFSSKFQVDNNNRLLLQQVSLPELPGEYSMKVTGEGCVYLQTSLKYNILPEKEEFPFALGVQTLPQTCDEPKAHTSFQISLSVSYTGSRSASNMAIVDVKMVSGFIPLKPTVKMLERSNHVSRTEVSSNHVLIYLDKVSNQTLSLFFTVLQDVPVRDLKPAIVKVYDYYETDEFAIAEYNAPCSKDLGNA
Assay: Inhibition of 125I-TGF-β2 and α2M* complex formation (5% non-denaturing PAGE)
Format: binding
Conditions: 50% inhibition; read-out: concentration that inhibited 50% of the complex formation of α2M* and 125I-TGF-β2
Description: TGF- ? isoforms bind to α2M* with different affinities: TGF ? β2>TGF ? β1 ( active sites of TGF ? β1 and TGF- ? 2 responsible for high-affinity binding to ? 2M* are disti from the low-affinity ? 2M* binding site in TGF- ? 3 (19). To determine if fatty acids differentially affect the binding of TGF- ? isoforms to ? 2M*, the effects of various concentrations of arachidonic acid and myristic acid on complex formation of ^125I-labeled TGF ? β isoforms and ? 2M were determined*. […] It inhibited 30% of the complex form . α2M* and TGF ? β2 and TGF ? β3 at 100 and >250 μM, respectively. Arachidon polyunsaturated fatty acid, was a stronger inhibitor of complex formation of ? 2M* and TGF-.β2/TGF ? β3. It inhibited 50% of the complex formation of ? 2M* and ^125I-TGF- ? 2 at 50 μM (FIG. 3A). The observation that myristic acid and arachidonic acid inhibited complex formation of ^125I-TGF- ? […] 2M* complexes in the reaction mixtures were then analyzed by 7.5% SDS-PAGE and autoradiography.
Complex formation of ^125I-TGF-β and ? […] After 30 min at room temperature, the complex formation of ^125I-TGF- ? and. α2M* was determined by 5% non-denaturing polyacrylamide gel electrophoresis (PAGE) or by 7.5% SDS-PAGE following cross-linking by 0.6 mM DSS. After electrophoresis, the gel was stained with Coomassie blue and analyzed by autoradiography. […] 2M* was quantified using a PhosphoImager (Fuji).

Work on `CCCCC/C=C\C/C=C\C/C=C\C/C=C\CCCC(=O)O` [arachidonic acid] yielded an IC50 of 50 µM.
